Active and inactive are the calls of the source. No cut-off for these calls is given here.
Experiments:
CCRF S-180 [1] = assay: Antiproliferative activity against mouse S180 cells assessed as cell viability after 48 hrs by MTT assay; format: functional, cell-based; conditions: CCRF S-180, 48 h
[2] = Antiproliferative activity against human SH-SY5Y cells assessed as cell viability after 48 hrs by MTT assay; format: functional, cell-based
HT-29 = assay: Antiproliferative activity against human HT-29 cells assessed as cell viability after 48 hrs by MTT assay; format: functional, cell-based; conditions: HT-29, 48 h
Calf thymus DNA [3] = assay: Binding affinity to calf thymus DNA at 40 uM by UV-spectrophotometric analysis; format: nucleic-acid assay; conditions: Bos taurus
CCRF S-180 [4] = assay: Antitumor activity against mouse S180 cells allografted in male ICR mouse assessed as tumor growth inhibition treated orally ervery day for 7 days; format: functional
[5] = Antioxidant activity assessed as OH free radical scavenging activity produced from dimethylpyridine-N-oxide by ESR assay; format: physicochemical
Mus musculus [6] = assay: Antiinflammatory activity in male ICR mouse assessed as xylene-induced ear edema at 1 umol/kg, ip relative to NS; format: functional, organism-based
Mus musculus [7] = assay: Antiinflammatory activity against xylene-induced male ICR mouse ear edema model assessed as plasma TNFalpha at 1 umol/kg, ip relative to NS; format: functional, organism-based
[8] = Antioxidant activity assessed as NO free radical scavenging activity produced from N-methyl-D-glucamine dithiocarbamate by ESR assay; format: physicochemical
Mus musculus [9] = assay: Antiinflammatory activity against xylene-induced male ICR mouse ear edema model assessed as plasma IL-8 at 1 umol/kg, ip relative to NS; format: functional, organism-based
K562 = assay: Antiproliferative activity against human K562 cells assessed as cell viability after 48 hrs by MTT assay; format: functional, cell-based; conditions: K562, 48 h
[10] = Antiproliferative activity against human HL60 cells assessed as cell viability after 48 hrs by MTT assay; format: functional, cell-based; conditions: HL-60, 48 h
A549 = assay: Antiproliferative activity against human A549 cells assessed as cell viability after 48 hrs by MTT assay; format: functional, cell-based; conditions: A549, 48 h
Calf thymus DNA [11] = assay: Binding affinity to calf thymus DNA at 40 uM by fluoresce spectrum analysis; format: nucleic-acid assay; conditions: Bos taurus
HepG2 = assay: Antiproliferative activity against human HepG2 cells assessed as cell viability after 48 hrs by MTT assay; format: functional, cell-based; conditions: HepG2, 48 h
[12] = Antioxidant activity assessed as O2 free radical scavenging activity produced from dimethylpyridine-N-oxide by ESR assay; format: physicochemical
HeLa = assay: Antiproliferative activity against human HeLa cells assessed as cell viability after 48 hrs by MTT assay; format: functional, cell-based
CCRF S-180 [13] = assay: Antitumor activity against mouse S180 cells allografted in male ICR mouse assessed as tumor growth inhibition at 0.1 umol/kg, po treated ervery day for 7 days relative to NS control; format: functional, organism-based

IC50 (CCRF S-180 [1]) [nM] | IC50 (HT-29) [nM] | Activity (Calf thymus DNA [3]) | EC50 [5] [nM] | EC50 [8] [nM] | IC50 (K562) [nM] | IC50 (A549) [nM] | Activity (Calf thymus DNA [11]) | IC50 (HepG2) [nM] | EC50 [12] [nM] | IC50 (HeLa) [nM] | Compound | IC50 [2] [nM] | inhibition (CCRF S-180 [4]) | inhibition (Mus musculus [6]) | inhibition (Mus musculus [7]) | inhibition (Mus musculus [9]) | IC50 [10] [nM] | inhibition (CCRF S-180 [13])
9250 |  |  |  |  |  |  |  |  |  |  | COc1cccc2c1C(=O)c1c(O)c3c(c(O)c1C2=O)C[C@@](O)(C(=O)CO)C[C@@H]3O[C@H]1C[C@H](N)[C@H](O)[C@H](C)O1 [DOXORUBICIN] |  |  |  |  |  |  | 
960 | 960 | Active | 170 | 73000 | 960 | 960 | Active | 960 | 285000 | 960 | COC(=O)c1cc(-c2nc(C(=O)OCc3ccccc3)cc3c2[nH]c2ccccc23)ccc1O | 960 | Dose-dependent effect | Active | Active | Active | 960 | Dose-dependent effect

From ChEMBL document CHEMBL3407399, “BPIC: A novel anti-tumor lead capable of inhibiting inflammation and scavenging free radicals” (Bioorg Med Chem Lett, 2015)
